The text below walks through data of article PMC8809056 (Science (New York, N.y.), 2021).

What is called EC50 is the concentration needed to bring the measured effect to its halfway point.

The first assay concerns SARS-CoV-2 (nCoV/Washington/1/2020). The experiment in a line: microbe, parasite or virus in culture. In kind it is cell-based.
Conditions: not given
For the molecule `Cc1ccc(NC(=O)c2ccc(CN3CCN(C)CC3)cc2)cc1Nc1nc(-c2cccnc2)cs1` [Masitinib], the “Inhibition of SARS-CoV-2 infection when added after infection” value was “effective in inhibiting SARS-CoV-2 infection”.

Still in this assay, the particulars now being: A549-ACE2 cells.
As to `Cc1ccc(NC(=O)c2ccc(CN3CCNCC3)cc2)cc1Nc1nc(-c2cccnc2)cs1` [AB3280], the “Inhibition of SARS-CoV-2 infection (in words)” value (shortened to “Inhibition … (in words)”) is “maintains its antiviral activity”.

As to `COC(=O)N[C@H](C(=O)N1CCC[C@H]1c1nc(-c2ccc3c(c2)O[C@@H](c2ccccc2)n2c-3cc3cc(-c4c[nH]c([C@@H]5CCCN5C(=O)[C@@H](NC(=O)OC)C(C)C)n4)ccc32)c[nH]1)C(C)C` [Elbasvir], the “Inhibition … (in words)” value is listed as “did not inhibit SARS-CoV-2 infection”.

Turning to `C[C@@H]1[C@H](O)[C@@H](C)/C=C/C=C/C=C/C=C/C=C/C=C/C=C/[C@H](O[C@@H]2O[C@H](C)[C@@H](O)[C@H](N)[C@@H]2O)C[C@@H]2O[C@](O)(C[C@@H](O)C[C@@H](O)[C@H](O)CC[C@@H](O)C[C@@H](O)CC(=O)O[C@H]1C)C[C@H](O)[C@H]2C(=O)O` [Amphotericin B], the “Inhibition … (in words)” value was “did not inhibit SARS-CoV-2 infection”.

The same assay, now with this note: Severe acute respiratory syndrome coronavirus 2, A549-ACE2; read-out: EC50 against SARS-CoV-2 infection.
Consider `OCCN1CCN(CCC=C2c3ccccc3Sc3ccc(C(F)(F)F)cc32)CC1` [Flupenthixol], for which the EC50 came out at 760 nM.

Take `COc1ccc2cc1Oc1ccc(cc1)C[C@H]1c3c(cc4c(c3Oc3cc5c(cc3OC)CCN(C)[C@@H]5C2)OCO4)CCN1C` [Cepharanthine]: the EC50 turned out to be 100 nM.

For `CN1CCCC(n2nc(Cc3ccc(Cl)cc3)c3ccccc3c2=O)CC1` (stereo not drawn) [Azelastine], the half-maximal effective concentration (EC50) was determined as 2400 nM.

In the case of `CCC(CC)COC(=O)[C@H](C)N[P@](=O)(OC[C@H]1O[C@@](C#N)(c2ccc3c(N)ncnn23)[C@H](O)[C@@H]1O)Oc1ccccc1` [Remdesivir], the half-maximal effective concentration (EC50) amounted to 720 nM.

Consider `Cc1ccc(NC(=O)c2ccc(CN3CC[C@H](N(C)C)C3)c(C(F)(F)F)c2)cc1Nc1nccc(-c2cncnc2)n1` [Bafetinib], for which the EC50 is 2200 nM.

As for `CS(=O)(=O)CCNCc1ccc(-c2ccc3ncnc(Nc4ccc(OCc5cccc(F)c5)c(Cl)c4)c3c2)o1` [Lapatinib], the EC50 was 1600 nM.

Turning to `CC(CN(C)C)CN1c2ccccc2CCc2ccccc21` (stereo not drawn) [Trimipramine], the EC50 came to 1500 nM.

The subject of a further assay is SARS-CoV-2 wild-type, B.1.1.7, B.1.351 and P.1.
Assay: not given
In kind it is cell-based.
Conditions: not given
In the case of `Cc1ccc(NC(=O)c2ccc(CN3CCN(C)CC3)cc2)cc1Nc1nc(-c2cccnc2)cs1` [Masitinib], the Viral progeny production result is listed as “dramatically reduced viral progeny production”.
